Test results taken from patent US20050142254A1 (priority 2003, published 2005).
Read-outs that look alike come from different tables or passages of the source.

Tests used:
[1] = assay type: physicochemical
Excerpt: (§1) We also confirmed that AFQ1 degradation is accelerated by heat, and it occurs non-enzymatically. Horseradish peroxidase (HRP) has a strong AFB1-degrading activity as well as hemin.

[2] = assay type: biochemical
Excerpt: as §1

[3] = assay type: biochemical; remark: listed apart in the source
Procedure: […]. Here, 25 μL of 400 μM hemin suspension was added to it and incubated at 30° C. for 30 minutes. The final concentration of each component was: AFB1, 16 μM; hydrogen peroxide, 500 μM; Tween 80, 1%; hemin, 100 μM.
After the reaction, HPLC and TLC analyses were performed to confirm the degradation of AFB1 and the formation of reaction product. The equal amount of ethyl acetate was added to the reaction mixture, and extraction was done by mixing with a Voltex mixer for 1 minute. The resulting mixture was centrifuged at 10,000×g for 2 minutes, and the ethyl acetate layer (upper layer) was recovered in a new 0.5-mL microtube.
The extract was used for HPLC analysis in succession. The separation column used was a silica column, Shim-pack CLC-SIL (0.46×15 cm). […].
AFB1 degradation was performed at 30° C. for 30 minutes in the same manner as in Example 1 except that the amount of hemin added was varied.
After the reaction, the amount of remaining AFB1 and that of AFQ1 formed were measured quantitatively by HPLC.
AFB1 degradation was performed at 30° C. for 30 minutes in the same manner as in Example 1 except that the amount of hydrogen peroxide added was varied.
After the reaction, amount of the remaining AFB1 and that of AFQ1 formed were measured quantitatively by HPLC.
(§2) AFB1 degradation was performed at 50° C. for 6 hours in the presence or absence of hemin with the same reaction mixture as used in Example 1. After the reaction, the reaction mixture was subjected to the mutagenicity test with Umlac. Ten percent of DMSO aqueous solution was prepared as a control without AFB1, and then subjected to the same mutagenicity test.

[4] = system: umu gene; assay type: cell-based
Procedure: Mutagenecity test was performed with the AFB1 degradation reaction mixture after hemin treatment. In the test, a conventional mutagenicity test kit “Umlac” (Nippon Antibody Laboratory) was used. Umlac is a kit for short-period mutagenicity test, umu-test, which was developed by Shinagawa (Research Institute for Microbial Diseases, Osaka University), et al. The test is to measure the expression level of umu gene using β-galactosidase activity as an index. The umu gene is considered to be a kind of SOS gene whose expression is induced by DNA-damaging chemicals, and known to be directly concerned with mutation. It has been confirmed that test result of “Umlac” well correlates with those of the Ames test and the carcinogenicity test that are currently used for typical mutagenicity test.
as §2
Higher umu gene expression represents higher mutagenicity. The control value represents no mutagenicity.

[5] = assay type: biochemical; settings: pH 7.5
[6] = Bisphenol A (BPA) degradation with hemin, HPLC; assay type: biochemical; settings: 100 μM hemin, 400 μM BPA, 500 μM hydrogen peroxide, 30° C., reaction for 6 hours
Procedure: […]. hydrogen peroxide, 500 μM; Tween 80, 1%; hemin, 100 μM.
BPA degradation was confirmed by HPLC. After the reaction, a portion (100 μL) of the reaction mixture was taken, added to the equal amount of ethyl acetate, and extracted for 1 minute by mixing with a Voltex mixer. The mixture was centrifuged at 10,000×g for 2 minutes, and the ethyl acetate layer (upper layer) was recovered in a new 0.5-mL microtube.
HPLC analysis was conducted using the extract. The column used was STR ODS-II (0.46×15 cm). For the mobile phase for BPA quantification, 50% acetonitrile aqueous solution containing 0.1% trifluoroacetic acid was used at the flow rate of 0.7 mL/min. A UV-visible spectrophotometric detector (Shimadzu SPD-6AV) was used at the absorbance wave length of 277 nm for BPA detection.
For the mobile phase for the detection of BPA degradation product, 30% acetonitrile aqueous solution containing 0.1% trifluoroacetic acid was used at the flow rate of 0.5 mL/min. The absorbance at wave length of 280 nm was monitored for this detection.

[7] = Aniline degradation with hemin, HPLC; assay type: biochemical; settings: 10 μM hemin, 50 μM aniline, 500 μM hydrogen peroxide, 30° C., reaction for 3 hours
Procedure: […]. Under this condition, the reaction mixture was uniform, thus no detergent was added to it.
After the reaction, equal amount of ethyl acetate was added to the reaction mixture, and extraction was done by mixing with a Voltex mixer for 1 minute, and then centrifuged at 10,000×g for 2 minutes. The resulting aniline-containing ethyl acetate layer (upper layer) was recovered in a new 0.5-mL microtube.
The ethyl acetate extract was directly subjected to HPLC analysis to determine the amount of remaining aniline. The column used was STRODS-II (0.46×15 cm). For mobile phase, 10% acetonitrile aqueous solution was used at the flow rate of 0.5 mL/min. With a UV-visible spectrophotometric detector (Shimadzu SPD-6AV), the absorbance at wave length of 280 nm was monitored for aniline detection.

COc1cc2c(c3oc(=O)c4c(c13)C(O)CC4=O)C1C=COC1O2 (stereo not shown) [AFQ1, aflatoxin Q1]
AFQ1 degradation, effect of temperature [1]: degraded much rapidly at 50 °C than 30 °C

HRP: Horseradish peroxidase
AFQ1-degradation rate, presence vs absence of HRP ([1]; 1 μM AFQ1 in phosphate buffer, 30° C. or 50° C.): no significant difference | AFB1-degrading activity [2]: strong

COc1cc2c(c3oc(=O)c4c(c13)CCC4=O)C1C=COC1O2 (stereo not shown) [AFB1, aflatoxin B1]
remaining AFB1 [3]: 12 µM | umu Gene Expression (OD620) [4]: 1.185

hemin
AFB1 degraded ([3]; 200 μM hemin, 16 μM AFB1, 30° C. for 30 minutes): approximately 25% | change in AFB1-degradation efficiency depending on hydrogen peroxide concentration ([3]; hemin, hydrogen peroxide 1.0 mM to 10 mM, 30° C. for 30 minutes): no significant increase | remaining AFB1 ([3]; reaction mixture with hemin, 16 μM AFB1, 50° C. for 6 hours): ≤ 0.16 µM | AFB1 added degraded ([3]; reaction mixture with hemin, 50° C. for 6 hours): more than 99% | aflatoxin M1 disappeared [5]: 36% | umu Gene Expression (OD620) ([4]; reaction mixture with AFB1 and hemin, treatment at 50° C. for 6 hours): 0.523 | amount of BPA relative to that initially added [6]: 18% | aniline relative to that initially added [7]: 45%
